Reference: US11827917B1, “Methods for the conversion of fermentable sugars to ethanol” (Colorado State University Research Foundation, priority 2020, dated 2023)

Legend:
[1] = test system: S. cerevisiae JAY 270; test: Continuous two-column immobilized cell bioreactor in YPD medium; format: cell-based, Saccharomyces cerevisiae; conditions: Phase 2, 0.2% PheOH in feed
From the text: The immobilized cell reactor system consisted of two glass cylindrical columns, a vessel with agitation containing fermentation medium (controlled temperature, pH, and dissolved oxygen), and a pump for delivery of the feed to the column. The glass column had dimensions of OD=32, ID=29, and L=160 mm; screens were placed above and below the alginate bead layer to retain the cells in the column. YPD medium with 0.6 g/L CaCl2·2H2O was used in the continuous fermentation. Two columns (a well-mixed reactor column and a packed-bed column) were used in this test (FIG. 5). The total volume of immobilized cells used to fill the column was […] and the medium volume was 20 mL in each column. The total medium volume in the system was 60 mL, including the medium in both columns and in the vessel. The flow rate of fresh medium was 2.3 mL/min.
The system was first fed with YPD medium for 20 hours to activate the immobilized cells. After 20 hours, samples were collected at different times points over 24 hours from both Column 1 (well-mixed reactor) and the entire system. Then YPD medium containing 0.2% PheOH was used to replace the YPD medium for another 26 hours. After that, the medium was changed back to YPD medium for 6 hours. The content of glucose and ethanol in samples was analyzed using HPLC.
Owing to the limited supply of algal hydrolysate, the test was conducted using YPD medium. The test was conducted with 0.2% PheOH as the growth inhibitor. For 20 hours prior to the start of the experiment, the system was fed YPD medium without PheOH to ensure that the cells were fully active following their immobilization. The experiment was then conducted with three phases: • (1) 24 hours, during which the feed was YPD medium without PheOH. The start of this phase represented time zero of the experiment. • (2) 26 hours, during which the feed was YPD medium with 0.2% PheOH. • (3) 6 hours, during which the feed was YPD medium without PheOH.

[2] = test system: yeast cell growth; test: Serum-bottle study of the TrpOH concentration with similar growth inhibition as PheOH; format: cell-based; conditions: serum bottles, data not shown
Procedure: For experiments with added PheOH, 2.0 mL of PheOH stock solution was added to one of the two vessels when the OD600 reached 1.0 to achieve a final concentration of 0.2% (w/v). In the serum bottle tests, TrpOH had stronger effects on yeast cell growth than PheOH at the same tested concentration. A study in serum bottles was then conducted to determine the TrpOH concentration that would have a similar growth inhibitory effect. […] Thus, for bioreactor experiments on the effects of TrpOH, the TrpOH was added at 0.12%. Since TrpOH was dissolved in DMSO, the same concentration of DMSO was added in the control bioreactor at the same time. All other bioreactor conditions were the same as in the PheOH test.

Compound	Ethanol productivity ([1]; C1) [g/L·h]	Ethanol yield ([1]; C1)	Ethanol yield ([1]; C1+C2)	Glucose conversion ([1]; C1+C2) [%]	Glucose conversion ([1]; after C1) [%]	Ethanol productivity ([1]; whole system) [g/L·h]	Concentration with similar growth inhibition as PheOH at 16.4 mM [2] [mM]	Concentration with similar growth inhibition as PheOH at 0.2% (w/v) [2]
OCCc1ccccc1 [PheOH, 2-phenylethanol]	21	about 0.45	~0.43	91	60	21		
OCCc1c[nH]c2ccccc12 [TrpOH, tryptophol]							7.5	0.12 % (w/v)
